Laboratory results reported in article PMC8171062, “Crystallographic fragment screening-based study of a novel FAD-dependent oxidoreductase from Chaetomium thermophilum” (Acta Crystallographica. Section D, Structural Biology, 2021).

Tests used:
Assay in all cases: X-ray crystal structure, […] A, soaking
Assay type in all cases: binding
CtFDO (CtFDOdegl) [1] = target: T1, CtFDO (CtFDOdegl) (Thermochaetoides thermophila, UniProt G0SAW6); conditions: 20 mM MgCl2; two molecules per chain, subsites S1 and S3; occupancy 0.7-0.8; formic acid in catalytic site
T1 construct: gene CTHT_0048040; secreted from Aspergillus oryzae, no tag mentioned; signal peptide (21), next 20 N-terminal and 8 C-terminal residues absent; 595 residues by LC-MS/MS; endoglycosidase F1 deglycosylated; about 68 kDa; monomer
T1 sequence (G0SAW6 entry or part of it): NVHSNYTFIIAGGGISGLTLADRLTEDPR
T1 sequence (G0SAW6 entry or part of it): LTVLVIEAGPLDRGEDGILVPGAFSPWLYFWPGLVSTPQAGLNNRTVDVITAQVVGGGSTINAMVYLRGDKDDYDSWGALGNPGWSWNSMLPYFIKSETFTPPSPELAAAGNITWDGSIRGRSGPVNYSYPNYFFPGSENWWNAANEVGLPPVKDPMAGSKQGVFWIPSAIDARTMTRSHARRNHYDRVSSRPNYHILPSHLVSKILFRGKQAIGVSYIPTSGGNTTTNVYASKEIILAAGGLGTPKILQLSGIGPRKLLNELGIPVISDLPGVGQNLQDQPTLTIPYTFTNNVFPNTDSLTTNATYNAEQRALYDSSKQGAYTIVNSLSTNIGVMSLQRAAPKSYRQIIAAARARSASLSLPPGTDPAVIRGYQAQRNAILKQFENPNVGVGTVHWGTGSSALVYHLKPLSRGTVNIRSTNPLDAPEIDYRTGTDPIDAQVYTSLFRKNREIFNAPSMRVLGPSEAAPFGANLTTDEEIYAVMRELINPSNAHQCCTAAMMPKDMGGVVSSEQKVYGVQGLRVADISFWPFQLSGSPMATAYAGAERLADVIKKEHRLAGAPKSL

CtFDO (CtFDOdegl) [2] = target: T1, CtFDO (CtFDOdegl); conditions: crystals at pH 5.5; catalytic site; occupancy 1.0; formic acid in S1
CtFDO (CtFDOdegl) [3] = target: T1, CtFDO (CtFDOdegl); conditions: crystals at pH 5.5; thiophene in subsite S2, aliphatic moiety in catalytic site; occupancy 0.9; formic acid in S1

SMILES: O=[N+]([O-])c1ccc(O)c(O)c1 [4NC, 4-nitrocatechol]
- X-ray crystal structure, 1.26 A, soaking (CtFDO (CtFDOdegl) [1]): both CtFDOdegl chains bind two molecules of 4NC

SMILES: COC(=O)c1ccc(CN)cc1 [MAMB, methyl-4-(aminomethyl)benzoate]
- X-ray crystal structure, 2.22 A, soaking (CtFDO (CtFDOdegl) [2]): CtFDOdegl binds one MAMB molecule in the CS

SMILES: C[C@H](NC(=O)CCC(=O)c1cccs1)c1cccnc1 [PESB, 4-oxo-N-[(1S)-1-(pyridin-3-yl)ethyl]-4-(thiophen-2-yl)butanamide]
- X-ray crystal structure, 1.60 A, soaking (CtFDO (CtFDOdegl) [3]): each protein chain binds one PESB molecule
